From US9918983B2, “Suicidal LSD1 inhibitors targeting SOX2-expressing cancer cells” (THE BOARD OF REGENTS OF THE NEVADA SYSTEM OF HIGHER …, priority 2013, dated 2018) come the findings set out here.

Assay [1] has as its target T1, recombinant HDAC1 (GST-HDAC1) (Homo sapiens, UniProt Q13547).
T1 construct: Human LSD1 and HDAC1 full-length cDNAs were obtained from Open Biosystems; GST (N, cleaved yes); made in house; host or cells: Escherichia coli BL21
Put plainly: In vitro deacetylation assay, recombinant HDAC1, H4K16ac peptide. The class given is biochemical. The conditions noted are these: LSD1 and HDAC1 without CoREST.
Text: Human LSD1 and HDAC1 full-length cDNAs were obtained from Open Biosystems. […] These cDNAs were fully sequenced and cloned into the pGEX-KG or pET28a vector and expressed as the glutathione S-transferase (GST)- or His-tagged fusion proteins in the Escherichia coli BL21 strain and affinity purified with glutathione or Ni-Sepharose (GE Healthcare, United Kingdom) resin. […] The GST tag and uncut GST-HDAC1/GST-LSD1 proteins were depleted by glutathione-Sepharose. For the reconstitution reaction, recombinant GST-CoREST, His-LSD1, and recombinant HDAC1 (rHDAC1) (GST was removed by the use of PreScission protease) (10 μg) were assembled into the LSD1-CoREST-HDAC1 complex and then pulled down by GSTSepharose resins. Protein A-Sepharose was used as a negative-control resin.
(§3) The percentages of deacetylated products were analyzed by mass spectrometry, and the data were analyzed by GraphPad Prism (version 5) software.

The target of assay [2] is T2, LSD1-protein A complex (Mus musculus, UniProt Q6ZQ88).
T2 construct: recombinant and endogenous LSD1 complexes isolated from F9 cells; endogenous in cells; host or cells: F9 mouse teratocarcinoma cells, anti-LSD1 immunoprecipitate on protein A-Sepharose
Put plainly: In vitro demethylation assay, immunoaffinity-purified LSD1-protein A complex from F9 cells. The conditions noted are these: dimethylated H3K4 peptide; 50 μM CBB1007 or 2 μM MS-275. The class given is biochemical.
Experimental: The immunocomplexes were captured by protein A-Sepharose. Isolated LSD1-protein A or HDAC1-protein A complexes were verified by Western blotting with LSD1 and HDAC1 antibodies.
as §3

Assay [3] relates to PA-1 cells. Description: Cell growth/viability (MTT, microscopy). The format is cell-based, human. The note with it: PA-1 cells, 50 μM, 30 hours. Here is the method: (§1) Lung, breast, ovarian, and other carcinoma cells were either obtained from American Type Culture Collection (ATCC) or from the DTP and DCTD Tumor Repository of National Cancer Institute (the NCI-60 cancer cell line panel), operated by Charles River Laboratory, Inc., as listed in Table 1. They were cultured according to instructions and treated with various concentrations of LSD1 inhibitors for 30-36 hours for mRNA analysis by quantitative real time RT-PCR or for 30-48 hours for protein analysis and the cell viability assays using Western blotting or microscopy and MTT assays as described previously (Wang, J., et al. (2011) Cancer Research 71, 7238-7249).
(§2) Alternatively, cell viability assays were conducted as previously described (Wang, J., et al. (2011) Cancer Research 71, 7238-7249). For the MTT assay, cells were seeded onto 96-well culture plates with a density of 2000-5000 cells/well, and incubated with CBB1003 or CBB1007 at various concentrations from 1 to 100 μM for 30-48 hours, depending cell growth rate. Dimethylsulfoxide (DMSO) was used as a solvent control. MTT was added to a final concentration of 0.5 mg/mL and cells were re-incubated for 4 hours. After removing the medium, 200 μL DMSO was added to dissolve formazan, followed by incubation for 10 minutes, and absorbance was measured at 490 nm by a Bio Red microplate reader. All assays were performed in triplicates for each concentration. The cell viability rate was calculated as the relative percentage of MTT absorption as follows: % cell viability=(mean experimental absorbance/mean control absorbance)×100.
Table 8 below lists activity of CBB3001 (compound 10) in Sox2-negative (ES-2) and Sox2-expressing (PA-1 and T47D) cancer cells determined in a cell-based assay as described herein (see also FIG. 3A-C).

Assay [4] has as its system NCI-H1437 cells. Description: Cell growth/viability (MTT, microscopy). The conditions noted are these: 24-30 hr (50 μM, 30 hr in FIG. 5B). The class given is cell-based, human. Here is the method: as §1
as §2, with “absorbance)×100. […]” for “absorbance)×100.”
Referring to FIG. 5C, the percent viability of cells treated with LSD1 inhibitors or siRNAs compared with control cells, as determined by 3-(4,5-dimethylthiazol-2-yl)-2,5-diphenyltetrazolium bromide (MTT) assay is shown. […] The statistical differences between inhibitor-treated and control groups were analyzed by one-way ANOVA (scale bar=[…]; **p<0.01).

The target of assay [5] is T3, LSD1-CoREST-HDAC1 complex (Homo sapiens, UniProt O60341+Q13547).
T3 construct: Human LSD1 and HDAC1 full-length cDNAs were obtained from Open Biosystems; GST (N, cleaved yes); made in house; host or cells: Escherichia coli BL21
Put plainly: Reconstituted LSD1-CoREST-HDAC1 complex on oligonucleosomes. The format is biochemical. The note with it: 50 μM CBB1007 or 2 μM MS-275.
Experimental: For the reconstitution reaction, recombinant GST-CoREST, His-LSD1, and recombinant HDAC1 (rHDAC1) (GST was removed by the use of PreScission protease) (10 μg) were assembled into the LSD1-CoREST-HDAC1 complex and then pulled down by GSTSepharose resins. Protein A-Sepharose was used as a negative-control resin.
Briefly, cells (1×10^6) were washed twice with ice-cold hypotonic buffer (20 mM potassium-HEPES, pH 7.8, 5 mM potassium acetate, 0.5 mM MgCl2, 0.5 mM DTT), swelled, and disrupted with 25 strokes in a Dounce homogenizer using a tightfitting pestle. Nuclei were pelleted at 4,000 rpm for 5 min and resuspended in buffer A (20 mM HEPES, pH 7.9, 1.5 mM magnesium acetate, 50 mM potassium acetate, 10% glycerol, 0.5 mM DTT, 150 mM NaCl, protease and phosphatase inhibitors). […] The chromatin pellet was resuspended in 0.5 mL buffer B (0.32 M sucrose, 50 mM Tris-HCl, pH 7.5, 4 mM MgCl2, 1 mM CaCl2, 0.1 mM phenylmethylsulfonyl fluoride) and incubated with 30 units of micrococcal nuclease for 10 min at 37° C. The digested samples were centrifuged at 8,000×g for 10 min, and the supernatant, which contained oligonucleosomes, was recovered.
The reaction products (demethylated or deacetylated histones) were analyzed by Western blotting.

T1 sequence (Q13547 whole entry): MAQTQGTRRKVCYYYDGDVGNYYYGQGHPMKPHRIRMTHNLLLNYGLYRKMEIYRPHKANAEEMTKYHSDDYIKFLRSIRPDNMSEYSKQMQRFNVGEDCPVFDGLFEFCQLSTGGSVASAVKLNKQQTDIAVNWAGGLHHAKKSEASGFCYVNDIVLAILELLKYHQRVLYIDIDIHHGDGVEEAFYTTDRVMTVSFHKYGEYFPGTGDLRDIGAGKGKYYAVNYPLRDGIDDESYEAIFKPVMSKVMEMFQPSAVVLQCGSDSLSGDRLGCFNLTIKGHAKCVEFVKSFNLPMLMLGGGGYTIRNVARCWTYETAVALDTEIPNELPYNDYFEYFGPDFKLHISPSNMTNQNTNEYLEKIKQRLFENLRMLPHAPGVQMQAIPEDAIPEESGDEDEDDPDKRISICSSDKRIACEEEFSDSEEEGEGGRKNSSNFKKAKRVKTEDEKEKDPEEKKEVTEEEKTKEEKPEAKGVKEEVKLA

Regarding `COC(=O)c1cc(CN2CCN(C(=N)N)CC2)cc(C(=O)N2CCN(C(=O)c3ccc(C(=N)N)cc3)CC2)c1` [CBB1007], the “HDAC1 activity in the absence of CoREST” value in assay [1] was “not inhibited”. Also, in assay [2], the “demethylation activity of immunoaffinity-purified LSD1 (LSD1-protein A)” value is recorded as “sensitive”. Besides, the cell growth result in assay [3] was “sensitive”; in assay [4] it was “no detectable effects”. Further, the “HDAC1 deacetylase activity in the reconstituted complex” value in assay [5] is “partial inhibition of the HDAC1 deacetylase activity”. Further, the “LSD1 demethylase activity in the reconstituted complex” value in assay [5] is on record as “inhibited the activity of LSD1 demethylase”.
